Assay results reported in article PMC11982978, “Cancer hotspot mutations rewire ERK2 specificity by selective exclusion of docking interactions” (The Journal of Biological Chemistry, 2025).

Assays:
ERK2 WT = molecular target: T1, ERK2 WT (Mus musculus, UniProt P63085); experiment: Competitive peptide kinase assay (D-peptide inhibition), ERK2 WT; format: biochemical; conditions: Table 2, 5 μM D-site dependent reporter peptide, 10 nM ERK2, 10 μM ATP, pH 7.4, fluorescence, mean of three independent replicates
T1 construct: His6; made in house; host or cells: E. coli BL21(DE3), co-expressed with GST-MEK1ΔN3
Method: We determined relative binding affinities for D-peptides from their potency as competitive inhibitors of WT or mutant ERK2 activity on a D-site-dependent reporter substrate peptide (Table S1, Fig. 3A, S3).
Competitive peptide kinase assays were performed with a D-site dependent MAPK reporter substrate peptide (AssayQuant Technologies Inc, #AQT0376) as we reported previously ([15]). Briefly, 5 μM of reporter peptide was mixed with various concentrations of D-peptides in reaction buffer (54 mM HEPES [pH 7.4], 1.2 mM DTT, 0.01% Brij-35, 1% glycerol, 0.2 mg/ml BSA, and 10 mM MgCl2). […] Phosphorylation of the reporter peptide was measured by fluorescence (λex 360 nm, λem 485 nm) in 90 s intervals over 21 min in a Spectra M5 plate reader. Rates were calculated from the linear portion of the reaction progress curve, and data were normalized to maximum (samples lacking competitor peptide) and minimum (control reactions lacking kinase) values. Normalized rates were plotted against D-peptide concentration and fitted into a sigmoidal dose-response curve to determine the IC50 values using GraphPad Prism (Version 9.3.0).

WT ERK2 [1] = experiment: Y2H D-site library screen, WT ERK2; format: cell-based, rat; set-up: key: ES = slope of ln(Ft/F0) vs number of yeast population doublings; conditions: mutant ES is the combined average ES from the D319N and E320K screens
Text: (§1) To examine how cancer-associated CD site mutations affect the scope of ERK2 docking interactions, we adopted a Y2H strategy that we previously applied to define the D-site interactome of WT ERK2 ([15]). This system reports on interactions between ERK2 and a fragment of its substrate ELK1 that harbors a docking site essential for binding (Fig. 1C). The system thus evaluates the binding of potential sequences by substituting them for the native ELK1 docking site. We transformed Y2H strains with a bait plasmid expressing the Gal4 DNA-binding domain (DBD) fused to WT or CD mutant forms of rat ERK2 (R133K, D319N or E320K, equivalent respectively to human R135K, D321N and E322K), along with a prey plasmid expressing Gal4 activation domain (AD) fused to the ELK1 fragment harboring various docking site sequences. We then assayed these strains for growth on solid media under non-selective (+His) and selective conditions (−His) to detect interactions (Fig. 1D).
(§2) We previously used the Y2H system to screen WT ERK2 against a pooled library of 11,756 ELK1 variants incorporating potential docking sites from the human proteome ([15]). To identify interacting sequences either gained or lost upon ERK2 CD site mutation, we screened the same library against ERK2^D319N and ERK2^E320K. Yeast expressing ERK2 mutant bait plasmids were transformed with the ELK1 library pool and subjected to competitive growth under selective (−His) and non-selective conditions (+His) in parallel. Cultures were sampled periodically over ∼7 population doublings. The DNA sequence encoding the variable docking site region was PCR amplified and analyzed by next-generation sequencing (Fig. 2A, Dataset S1). The change in sequence abundance over time was fitted to an exponential function to assign an enrichment score (ES) to each docking site, where a higher ES indicates a greater increase in sequence abundance as the population grows. A significant enrichment of docking site sequences was observed only under selective conditions (Figs. 2B, S1). For each mutant, we observed generally good reproducibility across three independently conducted screens albeit with some sequences enriched in only a single replicate (Fig. S2, A and B). Average ES scores for the E320K and D319N mutant screens were better correlated with each other (R = 0.83) than were average ES scores for either mutant compared to WT ERK2 (R = 0.67 for WT versus D319N, R = 0.63 for WT versus E320K) (Fig. S2C).
(§3) To compare sequences selected by CD mutants with those selected by WT ERK2, we defined those sequences with an ES equal to or higher than three standard deviations from the mean (Z > 3) as hits. Using this cutoff, we obtained 121, 127, and 153 hits sequences from the WT, D319N, and E320K screens, respectively (Fig. 2C, Dataset S2).
(§4) Yeast harboring pGBT9-ERK2^E320K or pGBT9-ERK2^D319N were transformed with the pGADGH-ELK1 D-site library plasmid pool. Transformants (10–40 colonies per library component) were suspended in SD-Leu-Trp media, diluted to an OD600 of 0.1, and cultured in a shaking incubator at 30 °C to an OD600 of 1.0. The resulting culture was used to initiate a competitive selection screen. Cell growth, sample collection and data analysis were performed exactly as described previously for WT ERK2 ([15]). The frequency (F) of each D-site sequence at a given time point (t) was calculated by dividing the number of reads by the total read count for all sequences. For each sequence, a plot of ln(Ft/F0) as a function of the number of yeast population doublings was fit to a line, and the enrichment score (ES) for that sequence was defined as the slope of this line. Illumina sequencing reads, calculated ES, and Z scores for each screen are provided in Dataset S1.

WT ERK2 [2] = conditions: selective conditions (-His); hits Z > 3; average of three screens; cited from earlier work
Text: Supplement mmc2.xlsx, sheet "WT Hits" | column: Z-score

ERK2 D319N = experiment: Y2H D-site library screen, ERK2 D319N; format: cell-based, rat; set-up: key to ES, +His / ES, -His: ES = slope of ln(Ft/F0) vs number of yeast population doublings
Text: as §1, §2, §3, §4

ERK2 E320K = experiment: Y2H D-site library screen, ERK2 E320K; format: cell-based, rat; set-up: key to ES, +His / ES, -His: ES = slope of ln(Ft/F0) vs number of yeast population doublings
Text: as §1, §2, §3, §4

[3] = Average of 3 Replicate Screens, non-selective
[4] = Average of 3 Replicate Screens, selective
[5] = Average of 3 Replicate Experiments, non-selective
[6] = Average of 3 Replicate Experiments, selective

T1 sequence (P63085 whole entry): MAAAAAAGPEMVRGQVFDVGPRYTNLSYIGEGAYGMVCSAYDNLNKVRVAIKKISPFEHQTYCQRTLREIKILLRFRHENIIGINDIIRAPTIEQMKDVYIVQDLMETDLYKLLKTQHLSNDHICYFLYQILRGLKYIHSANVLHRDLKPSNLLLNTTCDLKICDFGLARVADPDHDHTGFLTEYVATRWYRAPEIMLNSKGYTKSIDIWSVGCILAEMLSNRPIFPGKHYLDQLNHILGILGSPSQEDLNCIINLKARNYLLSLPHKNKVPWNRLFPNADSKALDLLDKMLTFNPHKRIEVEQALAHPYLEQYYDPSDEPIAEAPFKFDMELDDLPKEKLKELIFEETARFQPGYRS

CC[C@H](C)[C@H](NC(=O)[C@H](C)NC(=O)[C@@H](N)Cc1ccc(O)cc1)C(=O)N[C@@H](CCCNC(=N)N)C(=O)N[C@@H](C)C(=O)N[C@@H](CCCNC(=N)N)C(=O)N[C@@H](CCCNC(=N)N)C(=O)N[C@@H](CCC(N)=O)C(=O)N[C@@H](CC(C)C)C(=O)N1CCC[C@H]1C(=O)N[C@@H](CCCNC(=N)N)C(=O)N[C@@H](CC(C)C)C(=O)N[C@@H](C)C(=O)N[C@H](C(=O)N[C@@H](CO)C(=O)N[C@@H](CC(=O)O)C(=O)O)C(C)C [ISG20 peptide G6Q]
IC50 (ERK2 WT): 41 µM

CC(C)C[C@H](NC(=O)[C@H](CCCNC(=N)N)NC(=O)[C@@H]1CCCN1C(=O)[C@H](CC(C)C)NC(=O)CNC(=O)[C@H](CCCNC(=N)N)NC(=O)[C@H](CCCNC(=N)N)NC(=O)[C@H](C)NC(=O)[C@H](CCCNC(=N)N)NC(=O)[C@H](CC(N)=O)NC(=O)[C@H](C)NC(=O)[C@@H](N)Cc1ccc(O)cc1)C(=O)N[C@@H](C)C(=O)N[C@H](C(=O)N[C@@H](CO)C(=O)N[C@@H](CC(=O)O)C(=O)O)C(C)C [ISG20 peptide I1N]
IC50 (ERK2 WT): 190 µM

CC[C@H](C)[C@H](NC(=O)[C@H](CCCNC(=N)N)NC(=O)[C@H](C)NC(=O)[C@@H](N)Cc1ccc(O)cc1)C(=O)N[C@@H](C)C(=O)N[C@@H](CCCNC(=N)N)C(=O)N[C@@H](CCCNC(=N)N)C(=O)NCC(=O)N[C@@H](CC(C)C)C(=O)N1CCC[C@H]1C(=O)N[C@@H](CCCNC(=N)N)C(=O)N[C@@H](CC(C)C)C(=O)N[C@@H](C)C(=O)N[C@H](C(=O)N[C@@H](CO)C(=O)N[C@@H](CC(=O)O)C(=O)O)C(C)C [ISG20 peptide I1R/R2I]
IC50 (ERK2 WT): 200 µM

CLSWKRMAGIFFLP [GLB1L3, D-site 14-mer in ELK1 Y2H prey]
WT ES - mutant ES (WT ERK2 [1]): 0.781
Z-score (ES) of hit sequences, WT ERK2 Y2H screen (WT ERK2 [2]): 14.12

GTRQVKNKGVIVKK [MEIKIN, D-site 14-mer in ELK1 Y2H prey]
ES, +His (ERK2 D319N; [3]): -0.02174
Z-Score, +His (ERK2 D319N; [3]): -0.8853
ES, -His (ERK2 D319N; [4]): -0.1312
Z-Score, -His (ERK2 D319N; [4]): -0.1438
ES, +His (ERK2 D319N; Experiment 1, non-selective): -0.02593
ES, -His (ERK2 D319N; Experiment 1, selective): -0.1282
ES, +His (ERK2 D319N; Experiment 2, non-selective): -0.03529
ES, -His (ERK2 D319N; Experiment 2, selective): -0.1336
ES, +His (ERK2 D319N; Experiment 3, non-selective): -0.004005
ES, -His (ERK2 D319N; Experiment 3, selective): -0.1318
ES, +His (ERK2 E320K; [5]): -0.01644
Z-Score, +His (ERK2 E320K; [5]): -0.6905
ES, -His (ERK2 E320K; [6]): -0.1045
Z-Score, -His (ERK2 E320K; [6]): 0.2622
ES, +His (ERK2 E320K; Experiment 1, non-selective): 0.02832
ES, -His (ERK2 E320K; Experiment 1, selective): -0.1559
ES, +His (ERK2 E320K; Experiment 2, non-selective): -0.03889
ES, -His (ERK2 E320K; Experiment 2, selective): -0.03551
ES, +His (ERK2 E320K; Experiment 3, non-selective): -0.03876
ES, -His (ERK2 E320K; Experiment 3, selective): -0.1222

RKPRSPPRALVLPH [PEG10, D-site 14-mer in ELK1 Y2H prey]
Z-score (ES) of hit sequences, WT ERK2 Y2H screen (WT ERK2 [2]): 3.94

RKRSKPKLKLKIIN [KMT2C, D-site 14-mer in ELK1 Y2H prey]
Z-score (ES) of hit sequences, WT ERK2 Y2H screen (WT ERK2 [2]): 17.15

RKTKKKKSHLSLVG [ATXN7L3, D-site 14-mer in ELK1 Y2H prey]
Z-score (ES) of hit sequences, WT ERK2 Y2H screen (WT ERK2 [2]): 3.39

RLQSRKPPNLSITI [RHBDF2, D-site 14-mer in ELK1 Y2H prey]
Z-score (ES) of hit sequences, WT ERK2 Y2H screen (WT ERK2 [2]): 20.42

RPRCRRQPRLRLPT [EPM2A, D-site 14-mer in ELK1 Y2H prey]
Z-score (ES) of hit sequences, WT ERK2 Y2H screen (WT ERK2 [2]): 13.05

RQIRASKGIVVLEE [KANSL1L, D-site 14-mer in ELK1 Y2H prey]
ES, +His (ERK2 D319N; [3]): -0.009508
Z-Score, +His (ERK2 D319N; [3]): -0.257
ES, -His (ERK2 D319N; [4]): -0.1275
Z-Score, -His (ERK2 D319N; [4]): -0.06943
ES, +His (ERK2 D319N; Experiment 1, non-selective): -0.002763
ES, -His (ERK2 D319N; Experiment 1, selective): -0.1582
ES, +His (ERK2 D319N; Experiment 2, non-selective): -0.0144
ES, -His (ERK2 D319N; Experiment 2, selective): -0.1186
ES, +His (ERK2 D319N; Experiment 3, non-selective): -0.01136
ES, -His (ERK2 D319N; Experiment 3, selective): -0.1057
ES, +His (ERK2 E320K; [5]): -0.008476
Z-Score, +His (ERK2 E320K; [5]): -0.2637
ES, -His (ERK2 E320K; [6]): -0.1355
Z-Score, -His (ERK2 E320K; [6]): -0.3259
ES, +His (ERK2 E320K; Experiment 1, non-selective): 0.001097
ES, -His (ERK2 E320K; Experiment 1, selective): -0.1358
ES, +His (ERK2 E320K; Experiment 2, non-selective): -0.005884
ES, -His (ERK2 E320K; Experiment 2, selective): -0.07688
ES, +His (ERK2 E320K; Experiment 3, non-selective): -0.02064
ES, -His (ERK2 E320K; Experiment 3, selective): -0.1937

RQKKERPHMLNLSG [SYDE2, D-site 14-mer in ELK1 Y2H prey]
Z-score (ES) of hit sequences, WT ERK2 Y2H screen (WT ERK2 [2]): 5.14

RRQHRPPALLTLYP [DOCK6, D-site 14-mer in ELK1 Y2H prey]
Z-score (ES) of hit sequences, WT ERK2 Y2H screen (WT ERK2 [2]): 3.71

RRRGTRPPLLALLA [ROR1, D-site 14-mer in ELK1 Y2H prey]
Z-score (ES) of hit sequences, WT ERK2 Y2H screen (WT ERK2 [2]): 4.89

RSVRKRSPWLQLPG [FCRLB, D-site 14-mer in ELK1 Y2H prey]
Z-score (ES) of hit sequences, WT ERK2 Y2H screen (WT ERK2 [2]): 3.88

SGDPRKPRQLTVGD [ZMYND15, D-site 14-mer in ELK1 Y2H prey]
Z-score (ES) of hit sequences, WT ERK2 Y2H screen (WT ERK2 [2]): 5.02

SGMRARRGLLRLPR [B4GALT5, D-site 14-mer in ELK1 Y2H prey]
Z-score (ES) of hit sequences, WT ERK2 Y2H screen (WT ERK2 [2]): 5.95

SKGKKRNPGLKIPK [MAP2K6, D-site 14-mer in ELK1 Y2H prey]
Z-score (ES) of hit sequences, WT ERK2 Y2H screen (WT ERK2 [2]): 8.58

SLARAKRPSVSFAE [SCARF1, D-site 14-mer in ELK1 Y2H prey]
Z-score (ES) of hit sequences, WT ERK2 Y2H screen (WT ERK2 [2]): 5.09

SLKKKIQPKLSLTL [JAZF1, D-site 14-mer in ELK1 Y2H prey]
Z-score (ES) of hit sequences, WT ERK2 Y2H screen (WT ERK2 [2]): 5.24

SPKWKNFKGLKLQW [MLXIP, D-site 14-mer in ELK1 Y2H prey]
Z-score (ES) of hit sequences, WT ERK2 Y2H screen (WT ERK2 [2]): 8.72

SRKQRQPARLQLPA [ZBTB45, D-site 14-mer in ELK1 Y2H prey]
Z-score (ES) of hit sequences, WT ERK2 Y2H screen (WT ERK2 [2]): 3.70

TKMQKKVLSLRLPC [RIN2, D-site 14-mer in ELK1 Y2H prey]
Z-score (ES) of hit sequences, WT ERK2 Y2H screen (WT ERK2 [2]): 7.27

TRQKHAKKHLGFFR [UTP23, D-site 14-mer in ELK1 Y2H prey]
Z-score (ES) of hit sequences, WT ERK2 Y2H screen (WT ERK2 [2]): 3.13

TYRPKRPTTLNLFP [MAPK8IP1, D-site 14-mer in ELK1 Y2H prey]
Z-score (ES) of hit sequences, WT ERK2 Y2H screen (WT ERK2 [2]): 3.22

VVALRKKQQLAIGP [AGAP3, D-site 14-mer in ELK1 Y2H prey]
Z-score (ES) of hit sequences, WT ERK2 Y2H screen (WT ERK2 [2]): 6.33

YKMKFFTKCVAFSK [LRP2BP, D-site 14-mer in ELK1 Y2H prey]
Z-score (ES) of hit sequences, WT ERK2 Y2H screen (WT ERK2 [2]): 3.15
